Legend:
[1] = test system: L1210; assay: Compound was tested for its ability to inhibit L1210 cell growth; format: functional, cell-based; details: Mus musculus
[2] = molecular target: T1, Thymidylate synthase (Lactobacillus casei, UniProt P00469); assay: Compound was tested for its ability to inhibit thymidylate synthetase isolated from MTX-resistant Lactobacillus casei; parameters: species or system Lacticaseibacillus casei
T1 sequence (P00469 whole entry): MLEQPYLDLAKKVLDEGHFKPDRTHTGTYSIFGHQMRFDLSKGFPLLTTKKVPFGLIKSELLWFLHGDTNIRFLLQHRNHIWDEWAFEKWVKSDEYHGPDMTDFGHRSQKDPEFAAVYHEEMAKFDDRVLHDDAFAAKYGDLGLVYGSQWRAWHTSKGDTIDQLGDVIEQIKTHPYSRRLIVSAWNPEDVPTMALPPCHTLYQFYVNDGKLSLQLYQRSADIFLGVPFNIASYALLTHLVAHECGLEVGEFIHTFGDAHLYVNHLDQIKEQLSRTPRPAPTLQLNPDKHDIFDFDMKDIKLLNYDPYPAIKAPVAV

[3] = molecular target: T2, Dihydrofolate reductase (Mus musculus) (UniProt P00375); details: L1210
T2 sequence (whole entry): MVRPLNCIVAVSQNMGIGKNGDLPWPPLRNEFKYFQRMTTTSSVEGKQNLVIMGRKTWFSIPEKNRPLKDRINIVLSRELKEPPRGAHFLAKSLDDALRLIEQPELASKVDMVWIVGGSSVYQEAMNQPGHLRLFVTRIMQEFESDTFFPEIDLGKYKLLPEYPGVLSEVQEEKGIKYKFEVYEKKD
Description: Compound was tested for its ability to inhibit dihydrofolate reductase purified from murine L1210 cells, activity expressed as IC50/[E]

[4] = molecular target: T3, Dihydrofolate reductase (Mus musculus, UniProt P00375); assay: biochemical
T3 sequence (P00375 whole entry): T2 sequence (whole entry)
Description: Compound was tested for its ability to inhibit dihydrofolate reductase purified from murine L1210 cells

Row | IC50 [1] [nM] | Ki [2] [nM] | IC50/[E] [3] | IC50 [4] [nM] | SMILES
1 | 29000 | 130 | 4.4 | 310 | CN(Cc1cnc2nc(N)nc(N)c2n1)c1ccc(C(=O)NCCCC(=O)NCCCC(=O)NCCCC(=O)NC(CCC(=O)O)C(=O)O)cc1 (stereo unspecified)
2 | > 100000 | 172 | 12 | 840 | CN(Cc1cnc2nc(N)nc(N)c2n1)c1ccc(C(=O)NCCCC(=O)NCCCC(=O)NCCCC(=O)NCCCC(=O)NCCCC(=O)NC(CCC(=O)O)C(=O)O)cc1 (stereo unspecified)
3 | 5600 | 205 | 1.3 | 90 | CN(Cc1cnc2nc(N)nc(N)c2n1)c1ccc(C(=O)NCCCC(=O)NCCCC(=O)NC(CCC(=O)O)C(=O)O)cc1 (stereo unspecified)
4 | > 100000 | 189 | 7.7 | 540 | CN(Cc1cnc2nc(N)nc(N)c2n1)c1ccc(C(=O)NCCCC(=O)NCCCC(=O)NCCCC(=O)NCCCC(=O)NC(CCC(=O)O)C(=O)O)cc1 (stereo unspecified)
5 | 530 | 336 | 0.82 | 82 | CN(Cc1cnc2nc(N)nc(N)c2n1)c1ccc(C(=O)NCCCC(=O)NC(CCC(=O)O)C(=O)O)cc1 (stereo unspecified)

Row | SMILES | IC50 [1] [nM] | Ki [2] [nM] | IC50/[E] [3] | IC50 [4] [nM]
6 | CN(Cc1cnc2nc(N)nc(N)c2n1)c1ccc(C(=O)N[C@@H](CCC(=O)O)C(=O)O)cc1 [METHOTREXATE] | 20 | – | – | –

Source: ChEMBL document CHEMBL1123226, “Methotrexate analogues. 29. Effect of gamma-aminobutyric acid spacers between the pteroyl and glutamate moieties on enzyme binding and cell growth inhibition” (J Med Chem, 1986)
